# Test results taken from patent US5424290A, “Biologically active peptides and uses therefor” (Magainin Pharmaceuticals Inc., priority 1992, dated 1995).
# Residues, ends and D or L forms follow the SMILES beside them.
# Columns and labels:
# Assay type in all cases: cell-based
# [1] = test system: S. aureus strain ATCC 25923; test: Minimal Inhibitory Concentration, microtiter broth dilution antibacterial assay; conditions: S. aureus ATCC 25923; Mueller Hinton broth; 16-20 hours at 37° C.; lowest concentration giving a clear well
# Excerpt: (§1) Table I, which follows, indicates the Minimal Inhibitory Concentration (MIC) in μg/ml of Peptides (SEQ ID NO:1) through (SEQ ID NO:4), (SEQ ID NO:6) through (SEQ ID NO:13), (SEQ ID NO:16), (SEQ ID NO:20), (SEQ ID NO:21) and (SEQ ID NO:23) against S. aureus strain ATCC 25923, P. aeruginosa strain ATCC 27853, E. coli strain 25922, and Candida albicans. The procedure for the antibacterial assay is based upon the guidelines of the National Committee for Clinical Laboratory Standards, Document M7-T2, Volume 8, No. 8, 1988. Stock solutions of the peptides hereinabove mentioned are prepared at a concentration of 512 μg/ml in sterile deionized distilled water and stored at […]. Each peptide is a C-terminal amide and may or may not be acetylated at the N-terminus. An acetyl group at the N-terminus is indicated by an X. The stock peptide solution is diluted in serial dilutions (1:2) down the wells of a microtiter plate so that the final concentrations of peptides in the wells are 0.25, 0.50, 1, 2, 4, 8, 16, 32, 64, 128, and 256 μg/ml. 1-5×10^5 CFUs/ml of either S. aureus ATCC 25923, E. coli ATCC 25922, P. aeruginosa ATCC 27853, or Candida albicans were added to the wells in full strength Mueller Hinton broth (BBL 11443) from a mid-log culture. The inoculum is standardized spectrophotometrically at 600 nm and is verified by colony counts. The plates are incubated for 16-20 hours at 37° C., and the minimal inhibitory concentration (MIC) for each peptide is determined. Minimal inhibitory concentration is defined as the lowest concentration of peptide which produces a clear well in the microtiter plate.
# E. coli ATCC 25922 = test: as above; conditions: Mueller Hinton broth, 16-20 hours at 37° C., lowest concentration giving a clear well
# Excerpt: as §1
# Candida albicans = test: Minimal Inhibitory Concentration, microtiter broth dilution assay; conditions: Mueller Hinton broth, 16-20 hours at 37° C., lowest concentration giving a clear well
# Excerpt: as §1
compound,measurement,setting,value
CC[C@H](C)[C@H](NC(=O)CN)C(=O)N[C@H](C(=O)NCC(=O)N[C@@H](CCCCN)C(=O)N[C@@H](Cc1ccccc1)C(=O)N[C@@H](CC(C)C)C(=O)N[C@@H](CCCCN)C(=O)N[C@@H](CCCCN)C(=O)N[C@@H](C)C(=O)N[C@@H](CCCCN)C(=O)N[C@@H](CCCCN)C(=O)N[C@@H](Cc1ccccc1)C(=O)NCC(=O)N[C@@H](CCCCN)C(=O)N[C@@H](C)C(=O)N[C@@H](Cc1ccccc1)C(=O)N[C@H](C(=O)N[C@@H](CCCCN)C(=O)N[C@H](C(=O)N[C@@H](CC(C)C)C(=O)N[C@@H](CCCCN)C(=O)N[C@@H](CCCCN)C(N)=O)[C@@H](C)CC)C(C)C)[C@@H](C)CC [(SEQ ID NO: 16)-NH2] (H-GIIGKFLKKAKKFGKAFVKILKK-NH2),Minimal Inhibitory Concentration S. aureus,[1],4 µg/mL
same,Minimal Inhibitory Concentration E. coli,E. coli ATCC 25922,8 µg/mL
same,Minimal Inhibitory Concentration C. albicans,Candida albicans,64 µg/mL
CC[C@H](C)[C@H](NC(=O)[C@H](C)NC(=O)[C@H](CCCCN)NC(=O)CNC(=O)[C@@H](NC(=O)[C@H](CCCCN)NC(=O)[C@H](CCCCN)NC(=O)[C@H](C)NC(=O)[C@H](CCCCN)NC(=O)[C@H](CCCCN)NC(=O)[C@H](CC(C)C)NC(=O)[C@@H](NC(=O)[C@H](CCCCN)NC(=O)CNC(=O)[C@@H](N)Cc1ccccc1)[C@@H](C)CC)[C@@H](C)CC)C(=O)N[C@H](C(=O)N[C@@H](CCCCN)C(=O)N[C@@H](Cc1ccccc1)C(=O)N[C@@H](CC(C)C)C(=O)N[C@@H](CCCCN)C(=O)N[C@@H](CCCCN)C(N)=O)C(C)C [(SEQ ID NO: 23)-NH2] (H-FGKILKKAKKIGKAIVKFLKK-NH2),Minimal Inhibitory Concentration S. aureus,[1],16 µg/mL
same,Minimal Inhibitory Concentration E. coli,E. coli ATCC 25922,32 µg/mL
same,Minimal Inhibitory Concentration C. albicans,Candida albicans,128 µg/mL
CC[C@H](C)[C@H](NC(C)=O)C(=O)NCC(=O)N[C@@H](CCCCN)C(=O)N[C@@H](Cc1ccccc1)C(=O)N[C@@H](CC(C)C)C(=O)N[C@@H](CCCCN)C(=O)N[C@@H](CCCCN)C(=O)N[C@@H](C)C(=O)N[C@@H](CCCCN)C(=O)N[C@@H](CCCCN)C(=O)N[C@@H](Cc1ccccc1)C(=O)NCC(=O)N[C@@H](CCCCN)C(=O)N[C@@H](C)C(=O)N[C@@H](Cc1ccccc1)C(=O)N[C@H](C(=O)N[C@@H](CCCCN)C(=O)N[C@H](C(=O)N[C@@H](CC(C)C)C(=O)N[C@@H](CCCCN)C(=O)N[C@@H](CCCCN)C(N)=O)[C@@H](C)CC)C(C)C [X- (SEQ ID NO: 1)-NH2] (Ac-IGKFLKKAKKFGKAFVKILKK-NH2),Minimal Inhibitory Concentration S. aureus,[1],8 µg/mL
same,Minimal Inhibitory Concentration E. coli,E. coli ATCC 25922,8 µg/mL
same,Minimal Inhibitory Concentration C. albicans,Candida albicans,128 µg/mL
